Laboratory results as given in PubChem BioAssay AID488867 (Broad Institute, 2010).
Activity calls are given as the source filed them.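 Rule for the calls: active = a rising curve with AC50 no higher than ten times the top valid dose of that compound; inconclusive = flat curve between 30 and 70 percent, or failed fit; inactive = the rest.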

Tested on: not listed separately
Assay: protection from cytokine-driven beta-cell apoptosis, dose response, JC-1 fluorescence, INS-1E, dry powder, set 2 (AID 488867)
Conditions: INS-1E cytokine-induced apoptosis, JC-1 mitochondrial potential, 48 h; at 23.5 µM (top of the series)

| Compound | protection from cytokine-induced depolarization |
| --- | --- |
| C[C@@H]1CN([C@@H](C)CO)C(=O)c2cccc(NC(=O)Nc3cccc4ccccc34)c2O[C@H]1CN(C)C(=O)Nc1ccccc1 | 2.8% (inactive) |

Same assay, conditions: INS-1E cytokine-induced apoptosis, JC-1 mitochondrial potential, 48 h; at 26 µM (top of the series)

| Compound | protection from cytokine-induced depolarization |
| --- | --- |
| C[C@@H]1CN([C@@H](C)CO)C(=O)c2cccc(NC(=O)Nc3ccccc3)c2O[C@H]1CN(C)S(=O)(=O)c1ccc(F)cc1 | 7.91% (inactive) |
| N#Cc1ccc2cc(Br)c(C(F)(F)P(=O)(O)O)cc2c1 | -2.22% (inactive) |
| CNC[C@@H]1Oc2c(NC(=O)Nc3cccc4ccccc34)cccc2C(=O)N([C@@H](C)CO)C[C@H]1C | 9.02% (inactive) |
| COc1ccc(S(=O)(=O)N(C)C[C@@H]2Oc3c(NC(=O)c4cnccn4)cccc3C(=O)N([C@@H](C)CO)C[C@H]2C)cc1 | -9.35% (inactive) |
| C[C@@H]1CN([C@@H](C)CO)C(=O)c2cccc(NC(=O)Nc3cccc4ccccc34)c2O[C@H]1CN(C)C(=O)NC1CCCCC1 | -6.42% (inactive) |
| C[C@@H]1CN([C@@H](C)CO)C(=O)c2cccc(NS(=O)(=O)c3ccccc3)c2O[C@H]1CN(C)Cc1ccc(C(F)(F)F)cc1 | -2.49% (inactive) |
| C[C@@H]1CN([C@@H](C)CO)C(=O)c2cccc(NC(=O)Nc3cccc4ccccc34)c2O[C@H]1CN(C)C(=O)Nc1ccc(F)cc1 | 9.03% (inactive) |
| C[C@@H]1CN([C@@H](C)CO)C(=O)c2cccc(NC(=O)Nc3cccc4ccccc34)c2O[C@H]1CN(C)S(C)(=O)=O | 2.48% (inactive) |
| COc1cccc(S(=O)(=O)N(C)C[C@@H]2Oc3c(NC(=O)Nc4cccc5ccccc45)cccc3C(=O)N([C@@H](C)CO)C[C@H]2C)c1 | 5.29% (inactive) |
| Cc1ccc(S(=O)(=O)N(C)C[C@@H]2Oc3c(NC(=O)Nc4ccccc4)cccc3C(=O)N([C@H](C)CO)C[C@H]2C)cc1 | 11.2% (inactive) |
| C[C@@H]1CN([C@@H](C)CO)C(=O)c2cccc(NC(=O)Nc3cccc4ccccc34)c2O[C@H]1CN(C)S(=O)(=O)c1ccccc1F | -16.5% (inactive) |
| C[C@@H]1CN([C@@H](C)CO)C(=O)c2cccc(NC(=O)Nc3cccc4ccccc34)c2O[C@H]1CN(C)S(=O)(=O)c1cccs1 | 3.88% (inactive) |
| COc1ccc(S(=O)(=O)N(C)C[C@H]2Oc3c(NC(=O)Nc4cccc5ccccc45)cccc3C(=O)N([C@H](C)CO)C[C@H]2C)cc1 | -8.55% (inactive) |
| COc1ccc(S(=O)(=O)N(C)C[C@@H]2Oc3c(NS(C)(=O)=O)cccc3C(=O)N([C@@H](C)CO)C[C@H]2C)cc1 | -7.47% (inactive) |
| C[C@@H]1CN([C@H](C)CO)C(=O)c2cccc(NC(=O)Nc3ccccc3)c2O[C@H]1CN(C)S(=O)(=O)c1ccc(Cl)cc1 | 15.6% (inactive) |

Tested on: INS-1E cytokine-induced apoptosis, JC-1 mitochondrial potential, 48 h
Assay: as above
Conditions: not given

| Compound | AC50 |
| --- | --- |
| COc1ccc(S(=O)(=O)N(C)C[C@@H]2Oc3c(NC(=O)Nc4ccccc4)cccc3C(=O)N([C@H](C)CO)C[C@H]2C)cc1 | > 26 µM (inactive) |
| COc1ccc(S(=O)(=O)N(C)C[C@@H]2Oc3c(NC(=O)Nc4cccc5ccccc45)cccc3C(=O)N([C@H](C)CO)C[C@H]2C)cc1 | > 23.5 µM (inactive) |
| Cc1ccc(S(=O)(=O)N(C)C[C@@H]2Oc3c(NC(=O)Nc4ccccc4)cccc3C(=O)N([C@@H](C)CO)C[C@H]2C)cc1 | > 26 µM (inactive) |
| COc1ccc(S(=O)(=O)N(C)C[C@H]2Oc3c(NC(=O)Nc4cccc5ccccc45)cccc3C(=O)N([C@@H](C)CO)C[C@@H]2C)cc1 | > 26 µM (inactive) |
